Source: patent US8476031B2, “Methods for protein labeling based on acyl carrier protein” (priority 2003, dated 2013)

Tests used:
6xHis-ACPS = target: T1, 6xHis-ACPS (Escherichia coli, UniProt P24224); assay: Competition assay between CoA and CoA-label as ACPS substrates; format: biochemical, E. coli; settings: 6xHis-ACP 0.4 μM, 6xHis-ACPS 0.4 μM, CoA-L 2 μM, CoA 0-80 μM; fit I=A/(1+Bx) of Western blot intensities
T1 sequence (P24224 1-126): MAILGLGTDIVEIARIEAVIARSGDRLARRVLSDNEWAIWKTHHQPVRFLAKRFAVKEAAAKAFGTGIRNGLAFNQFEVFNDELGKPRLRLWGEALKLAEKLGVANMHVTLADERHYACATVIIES
Experimental: (C) Competition assay between CoA and CoA-Bt or CoA-Dg as ACPS substrates: 6xHis-ACP (0.4 μM), 6xHis-ACPS (0.4 μM), CoA-Bt or CoA-Dg (2 μM) and varying concentrations of CoA (0-80 μM) are incubated for 30 min and the degree of labeling determined by Western blotting.
Purified 6xHis-AcpS (0.4 μM) is incubated at RT with either CoA-Bt or CoA-Dg (2 μM), variable amounts of CoA (0, 2, 4, 8, 12, 20, 40, 80 μM) and purified 6xHis-ACP-ha (0.4 μM) in 20 μl reaction buffer (50 mM Tris.Cl, pH 7.5, 10 mM MgCl2). After 25 minutes, each sample is quenched by addition of 20 μl of 2×SDS sample buffer and heated at 95° C. for 2 minutes. Labeled 6xHis-ACP-ha is detected by Western-blotting using either a streptavidin-horseradish peroxidase conjugate (dilution 1:12500) or an anti-digoxigenin antibody-horseradish peroxidase conjugate (dilution 1:500) and a chemiluminescent peroxidase substrate. Signal intensities at 0 μM CoA are arbitrary set to 1 for each experiment.

6xHis-ACP = 6xHis-ACP (Escherichia coli, UniProt P0A6A8+P24224); assay: In vitro biotinylation of 6xHis-ACP using CoA-Bt and 6xHis-ACPS (Western blot); format: biochemical, E. coli; settings: 6xHis-ACP 1 μM, 6xHis-ACPS 0.2 μM, CoA-Bt 5 μM; controls lacking components
Experimental: (A) Analysis of the reaction of 6xHis-ACP (1 μM), 6xHis-ACPS (0.2 μM) and CoA-Bt (5 μM). At indicated times (t) aliquots are removed from the reaction mixture and biotinylation of 6xHis-ACP probed by Western blotting using a streptavidin-peroxidase conjugate.
Purified 6xHis-ACP (1 μM) is incubated with 6xHis-ACPS (0.2 μM) and MgCl2 (10 mM) in reaction buffer (43 μl, 50 mM Tris Cl, pH 8.8) at room temperature. An aliquot of 7.5 μl is taken for analysis. CoA-Bt is added to a final concentration of 5 μM. Aliquots of 7.5 μl are taken at defined times. The aliquots are quenched for 30 seconds with coenzyme A (1 mM final concentration), and 8.2 μl SDS-buffer 2× are added. The samples are heated for 2 minutes at 95° C. The biotinylated 6xHis-ACP is detected by Western-blotting, using a streptavidin-horseradish peroxidase conjugate (NEN) and a chemiluminescent peroxidase substrate (Renaissance reagent plus, NEN). The western blot is analyzed using an image station (Kodak 440). As controls, samples containing each protein alone, and samples containing only one of the two proteins and CoA-Bt are also prepared and analyzed for biotinylation as above in order to check the background and to check the specificity of the reaction.

[1] = target: T2, ACP-NK1 fusion protein displayed on HEK293 cells (UniProt P0A6A8+P24224+P25103); assay: Labeling of ACP-NK1 fusion protein displayed on HEK293 cells (confocal fluorescence microscopy); format: cell-based; settings: 5 μM CoA substrate, 1 μM 6xHis-AcpS, 10 min RT; CoA-Bt followed by Streptavidin-Cy5; no staining of non-transfected cells
T2 construct: FLAG tag (C); 6xHis tag (C); expressed in transfected cells; host or cells: HEK293 (transient, pCEP4 vector)
Experimental: For the transient expression of ACP-NK1, the signal sequence of the 5-HT3-receptor (Sig5HT3) is fused to the N terminus of ACP via a short DYV linker and NK1 is fused to the C terminus of ACP via a short TS linker. In the resulting construct, a FLAG tag and a 6xHis tag is also attached to the C terminus of NK1. The corresponding gene of the fusion protein is inserted into the NheI and BamHI sites of the vector pCEP4 (Invitrogen). HEK293 cells are grown in DMEM/F2 (Dulbecco's modified Eagle medium, GIBCO BRL) supplemented with […] fetal calf serum (GIBCO, BRL). Transient transfection is performed as described (Nat Biotechnol 21, 86-89 (2003)) and the HEK293 cells are co-transfected with vectors expressing ACP-NK1 and a nuclear targeted EGEP (EGFP-NLS3). After 24 h, cells are incubated for 10 min at room temperature with 500 μl of PBS buffer containing MgCl2 (10 mM), 6xHis-AcpS (1 μM) and either CoA-Cy3, CoA-Cy5 or CoA-Bt (each 5 μM). The cells are then washed three times with PBS to remove any excess substrate and directly analyzed by laser-scanning confocal fluorescence microscopy when labeled with Cy3 or Cy5. Biotinylated cells are incubated with FluoroLink™ Cy5-labeled streptavidin (Amersham Biosciences) at concentrations of 1 μg/ml in PBS before being washed three times with PBS. Laser-scanning confocal micographs are recorded using a 488 nm argon/krypton laser line; a 543 nm HeNe laser line or a 633 nm HeNe laser line on a Zeiss LSM 510 microscope (Carl Zeiss AG, Göttingen, Germany) with a 63× water (1.2 numerical aperture) objective. Scanning speed and laser intensity are adjusted to avoid photobleaching of the fluorescent probes, and damage or morphological changes of the cells. Fluorescence is analyzed in the channels sensitive to GFP and sensitive to the respective dye. […] The ACP-NK1 receptor transiently expressed in HE293 cells is co-stained in a further experiment with CoA-Cy5 and with tetramethylrhodamine-labeled substance P(SP-rho), the natural ligand of NK1.

[2] = target: T3, ACP-NK1 receptor transiently expressed in HE293 cells (UniProt P0A6A8+P25103); assay: Co-staining of ACP-NK1 with CoA-Cy5 and SP-rho, reversal by unlabeled substance P; format: cell-based; settings: CoA-Cy5 and SP-rho co-stained
T3 construct: FLAG tag (C); 6xHis tag (C); expressed in transfected cells; host or cells: HEK293 (transient, pCEP4 vector)
Experimental: For the transient expression of ACP-NK1, the signal sequence of the 5-HT3-receptor (Sig5HT3) is fused to the N terminus of ACP via a short DYV linker and NK1 is fused to the C terminus of ACP via a short TS linker. In the resulting construct, a FLAG tag and a 6xHis tag is also attached to the C terminus of NK1. The corresponding gene of the fusion protein is inserted into the NheI and BamHI sites of the vector pCEP4 (Invitrogen). HEK293 cells are grown in DMEM/F2 (Dulbecco's modified Eagle medium, GIBCO BRL) supplemented with […] fetal calf serum (GIBCO, BRL). Transient transfection is performed as described (Nat Biotechnol 21, 86-89 (2003)) and the HEK293 cells are co-transfected with vectors expressing ACP-NK1 and a nuclear targeted EGEP (EGFP-NLS3). […] The cells are then washed three times with PBS to remove any excess substrate and directly analyzed by laser-scanning confocal fluorescence microscopy when labeled with Cy3 or Cy5. […] Laser-scanning confocal micographs are recorded using a 488 nm argon/krypton laser line; a 543 nm HeNe laser line or a 633 nm HeNe laser line on a Zeiss LSM 510 microscope (Carl Zeiss AG, Göttingen, Germany) with a 63× water (1.2 numerical aperture) objective. […] Fluorescence is analyzed in the channels sensitive to GFP and sensitive to the respective dye. […]

T2 sequence (P0A6A8+P25103 fused, one chain of several): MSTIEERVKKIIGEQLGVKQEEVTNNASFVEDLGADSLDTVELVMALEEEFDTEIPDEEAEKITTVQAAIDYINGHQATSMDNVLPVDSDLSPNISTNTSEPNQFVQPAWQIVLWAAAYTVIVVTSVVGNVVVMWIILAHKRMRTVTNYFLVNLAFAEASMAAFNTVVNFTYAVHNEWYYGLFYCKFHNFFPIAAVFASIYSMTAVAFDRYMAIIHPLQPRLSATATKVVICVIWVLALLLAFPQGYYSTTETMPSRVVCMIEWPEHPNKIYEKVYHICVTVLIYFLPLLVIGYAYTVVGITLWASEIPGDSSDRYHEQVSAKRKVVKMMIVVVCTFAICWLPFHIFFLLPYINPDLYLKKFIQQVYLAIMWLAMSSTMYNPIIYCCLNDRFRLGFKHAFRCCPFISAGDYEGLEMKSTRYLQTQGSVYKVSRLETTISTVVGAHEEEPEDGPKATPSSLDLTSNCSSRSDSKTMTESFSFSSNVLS
6xHis-ACP, sequence (P0A6A8 whole entry, looked up, one chain of several): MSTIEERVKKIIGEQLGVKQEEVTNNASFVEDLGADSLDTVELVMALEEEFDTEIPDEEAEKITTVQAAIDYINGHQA
T3 sequence (P0A6A8+P25103 fused): as the sequence (P0A6A8+P25103 fused, one chain of several) above

CC(C)(COP(=O)(O)OP(=O)(O)OC[C@H]1O[C@@H](n2cnc3c(N)ncnc32)C(O)[C@H]1OP(=O)(O)O)[C@@H](O)C(=O)NCCC(=O)NCCS[C@@H]1CC(=O)N(CCCCCC(=O)NNC(=O)CCCC[C@@H]2SC[C@@H]3NC(=O)N[C@@H]32)C1=O (stereo partly shown) [CoA-Bt]
ratio of the specificity constants (kcat/KM)CoA/(kcat/KM)CoA-L (6xHis-ACPS): 0.48 | biotinylation of 6xHis-ACP, specificity controls (6xHis-ACP): depends on the presence of all three components | membrane labelling of transfected HEK293 cells [1]: clear membrane labelling

CCN1/C(=C/C=C/C2=[N+](CCCCCC(=O)NCCN3C(=O)C[C@@H](SCCNC(=O)CCNC(=O)[C@H](O)C(C)(C)COP(=O)(O)OP(=O)(O)OC[C@H]4O[C@@H](n5cnc6c(N)ncnc65)C(O)[C@H]4OP(=O)(O)O)C3=O)c3ccc(S(=O)(=O)O)cc3C2(C)C)C(C)(C)c2cc(S(=O)(=O)[O-])ccc21 (stereo partly shown) [CoA-Cy3]
membrane labelling of transfected HEK293 cells [1]: clear membrane labelling

CCN1/C(=C/C=C/C=C/C2=[N+](CCCCCC(=O)NCCN3C(=O)C[C@@H](SCCNC(=O)CCNC(=O)[C@H](O)C(C)(C)COP(=O)(O)OP(=O)(O)OC[C@H]4O[C@@H](n5cnc6c(N)ncnc65)C(O)[C@H]4OP(=O)(O)O)C3=O)c3ccc(S(=O)(=O)O)cc3C2(C)C)C(C)(C)c2cc(S(=O)(=O)[O-])ccc21 (stereo partly shown) [CoA-Cy5]
membrane labelling of transfected HEK293 cells [1]: clear membrane labelling | staining localisation in co-staining experiment [2]: stain exclusively the membrane area

CC(C)(COP(=O)(O)OP(=O)(O)OC[C@H]1O[C@@H](n2cnc3c(N)ncnc32)C(O)[C@H]1OP(=O)(O)O)[C@@H](O)C(=O)NCCC(=O)NCCSC1CC(=O)N(CCCCCC(=O)NNC(=O)CCC(=O)N[C@H]2CC[C@@]3(C)[C@H](CC[C@@H]4[C@H]3C[C@@H](O)[C@]3(C)[C@@H](C5=CC(=O)OC5)CC[C@]43O)C2)C1=O (stereo partly shown) [CoA-Dg]
ratio of the specificity constants (kcat/KM)CoA/(kcat/KM)CoA-L (6xHis-ACPS): 0.35
